This passage reports Km results from paper PMC3144492 (Biochemistry, 2011).

A word on the Km: it is the substrate concentration at which the rate is half of its maximum.

The test system of the assay is SpUP. The following applies: 50 mM phosphate (co-substrate), 50 mM HEPES, pH 7.5.

`O=c1ccn([C@@H]2O[C@H](CO)[C@@H](O)[C@H]2O)c(=O)[nH]1` [uridine]: the Km stood at 171 ± 5 µM.
